{
  "source": "patent US11680082B2",
  "about": "“Conjugates of montelukast and peptides” (ENLITISA (SHANGHAI) PHARMACEUTICAL CO., LTD, priority 2018, dated 2023)",
  "key": {"[1]": {"test_system": "phenol red excretion in trachea", "assay": "Expectorant experiment, phenol red excretion method", "format": "in vivo, mice", "conditions": "Positive control, 0.15 g/kg intragastric, 5 days", "method": "50 Mice were randomly divided into 5 groups according to body weight: Normal saline, negative control group, ammonium chloride positive control group and high, medium and low dose of test drug (either Compound A, above, or Compound E, below). 10 mice in each group, 5 males and 5 females.\nCompound A was administered via atomization inhalation (0.15 mL/min) for 1 min, once daily for 5 days and the positive control drug was administered by intragastric administration for 5 days.\nHalf an hour after the last administration of Compound A, 5% phenol red solution was injected into the abdominal cavity. The mice were sacrificed after a further half an hour. The skin of the neck was removed and the trachea from the thyroid cartilage to the bifurcation was separated, soaked it in 5% sodium bicarbonate solution with constant shaking. The sodium bicarbonate solution was used to detect the phenol red content.\nThe absorbance at 558 nm was detected by spectrophotometry (721G Spectrophotometer, Shanghai Jingke, Shanghai, China). The optical density value was used to calculate the phenol red content In the trachea by reference to the phenol red standard curve. The results of each group and the negative control group were tested for significant t-test."}, "[2]": {"test_system": "xylene induced ear swelling", "assay": "Mouse ear swelling model I (xylene)", "format": "in vivo, BALB/c mice", "conditions": "xylene on right ear, topical treatment, 40 minutes; (right ear weight−left ear weight)/left ear weight", "experimental": "The mice were randomly divided into 7 groups as described in Table 1 below, with 5 mice in each group\nThe left ear of each mouse was used as autologous control. 20 μL of xylene (Shanghai Aladdin Bio-Chem Technology Co., Ltd., Shanghai, China) was applied to the right ear of each mouse, both inside and outside. The ear started to swell in about 4 minutes. Then, 0.08 g of each study treatments or vehicles were applied to the right ears in each group. The mice were put back into their cages.\nVehicle-1 in Table 1 below is the cream base without active ingredients. Vehicle-2 in Table 1 below is the gel base without active ingredients.\nThe mice were sacrificed by cervical dislocation after 40 minutes. The left and right ears were cut off. A skin pouch (Electron Microscopy Sciences, Hatfield, Pa., USA) with a diameter of 8 mm was used to take a piece of the ear from the same site of both ears."}, "[3]": {"test_system": "diabetic skin wound", "assay": "Diabetic wound model I", "format": "in vivo, db/db mice (C57BL/KsJ-db/db)", "conditions": "histology", "method": "A similar experiment with essentially the same protocol to that described in Example 6 above was carried out on 8 to 12 week-old male db/db mice (C57BL/KsJ-db/db), with a body weight of 35-45 g/mouse (Changzhou Cvens Experimental Animal Co. Ltd.).\nAn EMS skin biopsy punch with a 18 mm diameter was used to make wounds.\nDifferent drugs were administrated topically at 50 μL/wound, once daily from Day 0 to Day 12. The model group was given same amount of normal saline.\nPhotographs were taken for each wound every other day from Day 0. Photos were scanned into a computer, and wound areas calculated using ImageJ image analysis software (National Institute of Health, USA).\nThe unhealed wound area was expressed as a percentage of the original wound area: At/A0×100%, where A0 and At refer to the initial area at Day 0 and the wound area at the date of measurement (time t), respectively.\nHistological specimens were analyzed and skin regeneration, fibroblast proliferation, collagen regeneration scores (Masson score) and inflammation scores were estimated as follows.\nThe HE and Masson stained slices were observed under an optical microscope and were scored (1, 2 or 3 points) according to the following criteria. […]"}, "[4]": {"test_system": "diabetic skin wound", "assay": "Diabetic wound model II", "format": "in vivo, db/db mice (C57BL/KsJ-db/db)", "method": "A similar experiment with essentially the same protocol to that described in Example 7 above was carried out on 8 to 12 week-old male db/db mice (C57BL/KsJ-db/db) with a body weight of 35-45 g/mouse (Changzhou Cvens Experimental Animal Co. Ltd.).\nDifferent concentrations of Compound A and Compound 1 (“A” and “1” respectively, as indicated in the Table 5 below) were prepared in substantially the same way as described in Examples 6 and 7 above.\nDifferent drugs were administrated topically at 50 μL/wound, once daily from Day 0 to Day 12, as show in Table 5 below.\nThe model group was given same amount of normal saline. There were 8 mice in each group. 4 mice were in the control group. The skin pieces taken during wound creation were used as the samples at Day 7 for the control group.\nHistological specimens were analyzed as described in Example 7 above, except that the collagen deposition score criterion for the Masson stained sample were as follows. A comparison was made with normal tissue. No clear blue staining was given 0 points; blue fiber appearing in a scattered pattern was scored as 1 points; if more blue fiber appeared, this was scored as 2 points, and a diffuse blue colour was given 3 points."}},
  "note": "Non-standard residues stand in square brackets, D forms with d. No end group written: not given here. Hyp = O=C(O)[C@@H]1C[C@@H](O)CN1",
  "data": [
    {"compound": "Cl.N", "note": "[NH4Cl, ammonium chloride]", "values": [
      {"measurement": "Phenol red concentration", "setting": "[1]", "value": "10.335 ± 0.337", "unit": "µg/mL"}
    ]},
    {"compound": "Ala-Lys-Pro-Ser-Tyr-Hyp-Hyp-Thr-Tyr-Lys (AKPSY[Hyp][Hyp]TYK; not fully specified; printed as Ala-Lys-Pro-Ser-Tyr-Hyp-Hyp-Thr-Tyr-Lys) [Compound 1]", "values": [
      {"measurement": "Swelling rate", "setting": "[2]", "value": 61.5, "unit": "%"},
      {"measurement": "Fibroblast proliferation score", "setting": "[3]", "value": "could promote"},
      {"measurement": "Skin regeneration score", "setting": "[3]", "value": "could promote the skin regeneration"},
      {"measurement": "ratio of remaining wound area of initial wound (Mean)", "setting": "[4]; high dose (H), D1", "value": 1.000},
      {"measurement": "ratio of remaining wound area of initial wound (Mean)", "setting": "[4]; high dose (H), D2", "value": 1.051},
      {"measurement": "ratio of remaining wound area of initial wound (Mean)", "setting": "[4]; high dose (H), D4", "value": 0.821},
      {"measurement": "ratio of remaining wound area of initial wound (Mean)", "setting": "[4]; high dose (H), D6", "value": 0.718},
      {"measurement": "ratio of remaining wound area of initial wound (Mean)", "setting": "[4]; high dose (H), D8", "value": 0.486},
      {"measurement": "ratio of remaining wound area of initial wound (Mean)", "setting": "[4]; high dose (H), D10", "value": 0.478},
      {"measurement": "ratio of remaining wound area of initial wound (Mean)", "setting": "[4]; high dose (H), D12", "value": 0.368},
      {"measurement": "ratio of remaining wound area of initial wound (Mean)", "setting": "[4]; low dose (L), D1", "value": 1.000},
      {"measurement": "ratio of remaining wound area of initial wound (Mean)", "setting": "[4]; low dose (L), D2", "value": 0.860},
      {"measurement": "ratio of remaining wound area of initial wound (Mean)", "setting": "[4]; low dose (L), D4", "value": 0.753},
      {"measurement": "ratio of remaining wound area of initial wound (Mean)", "setting": "[4]; low dose (L), D6", "value": 0.593},
      {"measurement": "ratio of remaining wound area of initial wound (Mean)", "setting": "[4]; low dose (L), D8", "value": 0.467},
      {"measurement": "ratio of remaining wound area of initial wound (Mean)", "setting": "[4]; low dose (L), D10", "value": 0.433},
      {"measurement": "ratio of remaining wound area of initial wound (Mean)", "setting": "[4]; low dose (L), D12", "value": 0.306},
      {"measurement": "wound healing", "setting": "[4]; low dose, earlier stages after wound infliction", "value": "prompted wound healing in the earlier stages"},
      {"measurement": "ratio of remaining wound area of initial wound (Mean)", "setting": "[4]; medium dose (M), D1", "value": 1.000},
      {"measurement": "ratio of remaining wound area of initial wound (Mean)", "setting": "[4]; medium dose (M), D2", "value": 0.991},
      {"measurement": "ratio of remaining wound area of initial wound (Mean)", "setting": "[4]; medium dose (M), D4", "value": 0.895},
      {"measurement": "ratio of remaining wound area of initial wound (Mean)", "setting": "[4]; medium dose (M), D6", "value": 0.786},
      {"measurement": "ratio of remaining wound area of initial wound (Mean)", "setting": "[4]; medium dose (M), D8", "value": 0.552},
      {"measurement": "ratio of remaining wound area of initial wound (Mean)", "setting": "[4]; medium dose (M), D10", "value": 0.490},
      {"measurement": "ratio of remaining wound area of initial wound (Mean)", "setting": "[4]; medium dose (M), D12", "value": 0.344}
    ]}
  ]
}
